Data taken from article PMC7915026, “Sulfaguanidine Hybrid with Some New Pyridine-2-One Derivatives: Design, Synthesis, and Antimicrobial Activity against Multidrug-Resistant Bacteria as Dual DNA Gyrase and DHFR Inhibitors” (Antibiotics, 2021).
Values after ≈ are worked out from the molar mass of the structure shown. Where two headings read alike, the source gives them in different places.

Assays:
[1] = biological target: S. aureus DNA gyrase (Staphylococcus aureus, UniProt P0A0K8+P20831); assay: In vitro DNA gyrase supercoiling enzymatic assay; format: biochemical
Sequence of S. aureus DNA gyrase (P20831 whole entry): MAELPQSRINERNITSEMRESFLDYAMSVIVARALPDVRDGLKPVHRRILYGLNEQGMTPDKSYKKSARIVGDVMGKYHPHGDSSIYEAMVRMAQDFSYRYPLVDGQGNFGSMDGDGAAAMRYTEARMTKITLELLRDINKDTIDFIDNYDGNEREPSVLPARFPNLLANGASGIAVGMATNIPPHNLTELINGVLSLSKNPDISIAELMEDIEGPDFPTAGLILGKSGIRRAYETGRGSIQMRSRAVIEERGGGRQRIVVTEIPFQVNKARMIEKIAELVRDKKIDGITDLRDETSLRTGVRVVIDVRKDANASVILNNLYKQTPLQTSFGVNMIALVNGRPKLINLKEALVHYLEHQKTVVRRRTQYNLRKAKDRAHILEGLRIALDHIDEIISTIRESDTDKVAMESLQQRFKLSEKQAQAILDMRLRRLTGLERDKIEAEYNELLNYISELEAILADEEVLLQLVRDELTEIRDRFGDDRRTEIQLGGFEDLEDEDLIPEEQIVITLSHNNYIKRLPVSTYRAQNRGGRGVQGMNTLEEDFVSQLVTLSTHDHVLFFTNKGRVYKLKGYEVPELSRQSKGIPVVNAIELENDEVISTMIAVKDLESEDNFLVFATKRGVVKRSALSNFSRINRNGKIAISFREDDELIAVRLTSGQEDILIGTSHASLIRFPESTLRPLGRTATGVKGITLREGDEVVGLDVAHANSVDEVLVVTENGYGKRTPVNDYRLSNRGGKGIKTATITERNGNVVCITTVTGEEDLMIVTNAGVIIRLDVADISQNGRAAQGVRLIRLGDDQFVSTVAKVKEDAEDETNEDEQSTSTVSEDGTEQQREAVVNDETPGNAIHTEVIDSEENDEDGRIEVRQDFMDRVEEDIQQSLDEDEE
Sequence of S. aureus DNA gyrase (P0A0K8 whole entry): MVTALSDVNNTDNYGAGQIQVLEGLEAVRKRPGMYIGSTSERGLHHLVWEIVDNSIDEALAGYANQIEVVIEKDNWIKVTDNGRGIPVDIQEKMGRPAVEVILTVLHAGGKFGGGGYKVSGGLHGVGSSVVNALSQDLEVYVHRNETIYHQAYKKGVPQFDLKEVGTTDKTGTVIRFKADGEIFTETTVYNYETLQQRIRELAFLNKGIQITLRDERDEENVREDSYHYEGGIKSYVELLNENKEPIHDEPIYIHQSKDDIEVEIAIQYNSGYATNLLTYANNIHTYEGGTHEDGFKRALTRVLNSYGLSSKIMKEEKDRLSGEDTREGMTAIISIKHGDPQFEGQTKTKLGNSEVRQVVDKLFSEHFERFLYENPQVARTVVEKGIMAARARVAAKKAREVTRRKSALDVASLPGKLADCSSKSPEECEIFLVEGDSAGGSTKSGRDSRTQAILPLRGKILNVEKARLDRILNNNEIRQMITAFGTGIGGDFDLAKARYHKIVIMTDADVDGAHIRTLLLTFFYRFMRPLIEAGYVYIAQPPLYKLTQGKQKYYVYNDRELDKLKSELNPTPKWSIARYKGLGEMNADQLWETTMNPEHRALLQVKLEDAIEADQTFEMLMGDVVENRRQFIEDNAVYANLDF

[2] = tested on: C. albicans (ATCC 10231); assay: MIC and MFC determination; format: cell-based
[3] = tested on: E. faecalis ATCC 29212; assay: MIC and MBC determination; format: cell-based; settings: Enterococcus faecalis, ATCC29212, E. faecalis
[4] = tested on: F. oxysporum (RCMB 008002); assay: MIC and MFC determination; format: cell-based
[5] = tested on: B. subtilis ATCC 6633; assay: MIC and MBC determination; format: cell-based; settings: Bacillus subtilis, ATCC6633, B. subtilis
[6] = tested on: P. aeruginosa ATCC 27853; assay: MIC and MBC determination; format: cell-based; settings: Pseudomonas aeruginosa, ATCC27853, P. aeruginosa
[7] = tested on: S. aureus ATCC 29213; assay: MIC and MBC determination; format: cell-based; settings: Staphylococcus aureus, ATCC29213, S. aureus
[8] = tested on: spleen and thymus; assay: In vivo immunomodulation: immune organ weight and indexes; parameters: Spleen index: unit not given here; settings: mice
Excerpt: Both the spleen and thymus have important antibacterial and fungal immune organ responses, and any change in weight, and indexes can reflect the level of immune regulation. Additionally, the relative spleen and thymus indexes are important indices for nonspecific immunity and potential immunomodulatory compounds that increase the spleen and thymus weight. This increase is due to immune cells’ stimulation in the spleen and thymus. […]

[9] = tested on: Salmonella typhi (S. typhi ATCC 6539); assay: microbe, parasite or virus in culture; format: cell-based; settings: Salmonella enterica, Salmonella typhi
[10] = tested on: S. aureus ATCC 29213; assay: Inhibition zone, paper disk/agar diffusion; format: cell-based; settings: S. aureus; Na = no activity
Excerpt: (§1) The antimicrobial activity performed at the bacteriology laboratory, Botany and Microbiology Department, Faculty of Science, Al-Azhar University, Cairo, Egypt. The inhibition zone (IZ) of the tested derivatives expressed as the diameter (mm) according to the agar plate diffusion method.

[11] = tested on: F. oxysporum (RCMB 008002); assay: Inhibition zone, paper disk/agar diffusion; format: cell-based; settings: Na = no activity
Excerpt: as §1

[12] = tested on: E. coli ATCC 25922; assay: Inhibition zone, paper disk/agar diffusion; format: cell-based; settings: E. coli; Na = no activity
Excerpt: as §1

[13] = tested on: B. subtilis ATCC 6633; assay: Inhibition zone, paper disk/agar diffusion; format: cell-based; settings: B. subtilis; Na = no activity
Excerpt: as §1

[14] = tested on: S. typhi ATCC 6539; assay: Inhibition zone, paper disk/agar diffusion; format: cell-based; settings: S. typhi; Na = no activity
Excerpt: as §1

[15] = tested on: E. faecalis ATCC 29212; assay: Inhibition zone, paper disk/agar diffusion; format: cell-based; settings: E. faecalis; Na = no activity
Excerpt: as §1

[16] = tested on: P. aeruginosa ATCC 27853; assay: Inhibition zone, paper disk/agar diffusion; format: cell-based; settings: P. aeruginosa; Na = no activity
Excerpt: as §1

[17] = tested on: C. albicans (ATCC 10231); assay: Inhibition zone, paper disk/agar diffusion; format: cell-based; settings: Na = no activity
Excerpt: as §1

[18] = tested on: S. aureus ATCC 33591; assay: Inhibition zone against multidrug-resistant bacteria; format: cell-based; settings: MDRB S. aureus ATCC 33591
Excerpt: (§2) Norfloxacin was used as a positive control for the multidrug resistance study.
as §1

[19] = tested on: P. aeruginosa ATCC BAA-2111; assay: as above; format: cell-based; settings: MDRB P. aeruginosa ATCC BAA-2111
Excerpt: as §2, §1

[20] = tested on: S. aureus ATCC 43300; assay: as above; format: cell-based; settings: MDRB S. aureus ATCC 43300
Excerpt: as §2, §1

[21] = tested on: E. coli ATCC BAA-196; assay: as above; format: cell-based; settings: MDRB E. coli ATCC BAA-196
Excerpt: as §2, §1

[22] = tested on: E. coli ATCC 25922; assay: MIC and MBC determination; format: cell-based; settings: Escherichia coli, ATCC25922, E. coli
[23] = tested on: CD4+ and CD8+ T lymphocytes; assay: In vivo T lymphocyte subsets from peripheral blood, flow cytometry; settings: mice
Excerpt: Activation of immune cells as CD4^+ and CD8^+ T cells is one possible mechanism of a drug’s immune stimulus activity. An increase in these cells is thought to be a good indicator of an active immune response to infections. So, our work extended to study the effect of the most promising derivatives (2d, 8, and 11) on T lymphocyte subsets (CD4^+ and CD8^+) from peripheral blood, and determined the relative level in model mice that analyzed by flow cytometry after the period of treating.
In vitro intracellular killing activities for the most promising six derivatives 2a, 2b, 2d, 3a, 8, and 11 were performed according to reported methods.

[24] = tested on: S. aureus ATCC 33591; assay: MIC and MBC against multidrug-resistant strains; format: cell-based; settings: Staphylococcus aureus, ATCC33591, S. aureus ATCC 33591; for MBC: read-out: MBC; for MIC: read-out: MIC
Excerpt: as §2
(§3) The experiment was repeating for three-times.

[25] = tested on: P. aeruginosa ATCC BAA-2111; assay: MIC and MBC against multidrug-resistant strains; format: cell-based; settings: P. aeruginosa ATCC BAA-2111
Excerpt: as §2, §3

[26] = tested on: S. aureus ATCC 43300; assay: MIC and MBC against multidrug-resistant strains; format: cell-based; settings: Staphylococcus aureus, ATCC43300, S. aureus ATCC 43300; for MBC: read-out: MBC; for MIC: read-out: MIC
Excerpt: as §2, §3

[27] = tested on: E. coli ATCC BAA-196; assay: MIC and MBC against multidrug-resistant strains; format: cell-based; settings: E. coli ATCC BAA-196
Excerpt: as §2, §3

[28] = tested on: MDRB strains; assay: MIC and MBC, ranges over the MDRB panel; format: cell-based; settings: four MDRB strains
Excerpt: as §2, §3

[29] = Pseudomonas aeruginosa, ATCCBAA2111, read-out: MBC
[30] = Pseudomonas aeruginosa, ATCCBAA2111, read-out: MIC
[31] = Escherichia coli, ATCCBAA196, read-out: MBC
[32] = Escherichia coli, ATCCBAA196, read-out: MIC

N=C(N)NS(=O)(=O)c1ccc(NC(=O)c2cc3ccccc3oc2=N)cc1 [Compound 11, N-(4-(N-Carbamimidoylsulfamoyl)phenyl)-2-imino-2H-chromene-3-carboxamide]
IC50 [1]: 39.4 ± 1.15 µM
MFC/MIC [2]: <2
MFC ([2]; Candida albicans, ATCC10231, read-out: MFC): 45.6 ± 0.47 µM (≈ 17.6 µg/mL)
MIC ([2]; Candida albicans, ATCC10231, read-out: MIC): 24 ± 0.41 µM (≈ 9.25 µg/mL)
MBC ([3]; read-out: MBC): 81.1 ± 0.98 µM (≈ 31.2 µg/mL)
MIC ([3]; read-out: MIC): 40.5 ± 0.74 µM (≈ 15.6 µg/mL)
MFC/MIC [4]: <2
MFC ([4]; Fusarium oxysporum, RCMB008002, read-out: MFC): 145.9 ± 1.25 µM (≈ 56.2 µg/mL)
MIC ([4]; Fusarium oxysporum, RCMB008002, read-out: MIC): 81.08 ± 0.54 µM (≈ 31.2 µg/mL)
MBC ([5]; read-out: MBC): 17.2 ± 0.54 µM (≈ 6.63 µg/mL)
MIC ([5]; read-out: MIC): 10.1 ± 0.68 µM (≈ 3.9 µg/mL)
MBC ([6]; read-out: MBC): 144 ± 1.47 µM (≈ 55.5 µg/mL)
MIC ([6]; read-out: MIC): 72 ± 0.96 µM (≈ 27.8 µg/mL)
MBC ([7]; read-out: MBC): 40.5 ± 1.02 µM (≈ 15.6 µg/mL)
MIC ([7]; read-out: MIC): 20.3 ± 0.67 µM (≈ 7.81 µg/mL)
Spleen index [8]: 0.008 ± 0.00
Spleen weight [8]: 190 ± 0.074 mg
Thymus index [8]: 0.455 ± 0.07 mg/g
Thymus weight [8]: 13.67 ± 0.53 mg
MBC ([9]; read-out: MBC): 94.7 ± 0.79 µM (≈ 36.5 µg/mL)
MIC ([9]; read-out: MIC): 48 ± 0.85 µM (≈ 18.5 µg/mL)
Mean Diameter of the Inhibition Zone [10]: 24 ± 0.29 mm
Mean Diameter of the Inhibition Zone [11]: 18 ± 0.45 mm
Mean Diameter of the Inhibition Zone [12]: 25 ± 0.43 mm
Mean Diameter of the Inhibition Zone [13]: 28 ± 0.11 mm
Mean Diameter of the Inhibition Zone [14]: 18 ± 0.36 mm
Mean Diameter of the Inhibition Zone [15]: 29± 0.54 mm
Mean Diameter of the Inhibition Zone [16]: 24 ± 0.13 mm
Mean Diameter of the Inhibition Zone [17]: 22 ± 0.21 mm
Mean Diameter of Inhibition Zone [18]: 22 ± 0.65 mm
Mean Diameter of Inhibition Zone [19]: 23 ± 0.25 mm
Mean Diameter of Inhibition Zone [20]: 17 ± 0.3 mm
Mean Diameter of Inhibition Zone [21]: 19 ± 0.88 mm
MBC ([22]; read-out: MBC): 40.5 ± 0.75 µM (≈ 15.6 µg/mL)
MIC ([22]; read-out: MIC): 20.3 ± 0.36 µM (≈ 7.81 µg/mL)
T cells CD4+ [23]: 75.20 ± 0.97%
T cells CD8+ [23]: 24.05 ± 0.32%
MBC [24]: 19.2 ± 0.65 µM (≈ 7.41 µg/mL)
MIC [24]: 10.1 ± 0.29 µM (≈ 3.9 µg/mL)
MBC [25, 29]: 81.1 ± 0.86 µM (≈ 31.2 µg/mL)
MIC [25, 30]: 40.5 ± 0.74 µM (≈ 15.6 µg/mL)
MBC [26]: 81.1 ± 0.85 µM (≈ 31.2 µg/mL)
MIC [26]: 40.52 ± 0.36 µM (≈ 15.6 µg/mL)
MBC [27, 31]: 48 ± 0.81 µM (≈ 18.5 µg/mL)
MIC [27, 32]: 24 ± 0.49 µM (≈ 9.25 µg/mL)

CCn1cc(C(=O)O)c(=O)c2cc(F)c(N3CCNCC3)cc21 [Norfloxacin, reference compound]
Mean Diameter of Inhibition Zone [18]: 26 ± 0.5 mm
Mean Diameter of Inhibition Zone [19]: 24 ± 0.47 mm
Mean Diameter of Inhibition Zone [20]: 25 ± 0.5 mm
Mean Diameter of Inhibition Zone [21]: 27 ± 0.98 mm
MBC range [28]: 4.38 to 16.65 µM
MIC range [28]: 2.44 to 9.80 µM
MBC [24]: 4.38 ± 0.49 µM (≈ 1.4 µg/mL)
MIC [24]: 2.44 ± 0.45 µM (≈ 0.779 µg/mL)
MBC ([25]; listed as Nor.): 16.65 ± 0.19 µM (≈ 5.32 µg/mL)
MIC ([25]; listed as Nor.): 9.80 ± 0.41 µM (≈ 3.13 µg/mL)
MBC [25, 29]: 16.6 µM (≈ 5.32 µg/mL)
MIC [25, 30]: 9.8 µM (≈ 3.13 µg/mL)
MBC [26]: 7.82 ± 0.32 µM (≈ 2.5 µg/mL)
MIC [26]: 3.91 ± 0.21 µM (≈ 1.25 µg/mL)
MBC ([27]; listed as Nor.): 8.32 ± 0.47 µM (≈ 2.66 µg/mL)
MIC ([27]; listed as Nor.): 4.91 ± 0.69 µM (≈ 1.57 µg/mL)
MBC [27, 31]: 8.32 µM (≈ 2.66 µg/mL)
MIC [27, 32]: 4.91 µM (≈ 1.57 µg/mL)
